Test results from patent US10358436B2, “Kinase inhibitors and method of treating cancer” (University Health Network, priority 2010, dated 2019).

Experiments:
Arg (m) = Arg (m) (Mus musculus (Mouse), UniProt Q4JIM5); assay type: biochemical; settings: read-out: % Inhibition @ 0.1 μM, Arg (m)
Ron = Ron (Homo sapiens (Human), UniProt Q04912); assay type: biochemical; settings: read-out: % Inhibition @ 0.1 μM, Ron
Abl (m) = Abl (m) (Mus musculus (Mouse), UniProt P00520); assay type: biochemical; settings: read-out: % Inhibition @ 0.1 μM, Abl (m)
Bmx = Bmx (Homo sapiens (Human), UniProt P51813); assay type: biochemical; settings: read-out: % Inhibition @ 0.1 μM, Bmx
Tie2 = Tie2 (Homo sapiens (Human), UniProt Q02763); assay type: biochemical; settings: read-out: % Inhibition @ 0.1 μM, Tie2
FGFR3 = FGFR3 (Homo sapiens (Human), UniProt P22607); assay type: biochemical; settings: read-out: % Inhibition @ 0.1 μM, FGFR3
Sequence of FGFR3 (P22607 23-806): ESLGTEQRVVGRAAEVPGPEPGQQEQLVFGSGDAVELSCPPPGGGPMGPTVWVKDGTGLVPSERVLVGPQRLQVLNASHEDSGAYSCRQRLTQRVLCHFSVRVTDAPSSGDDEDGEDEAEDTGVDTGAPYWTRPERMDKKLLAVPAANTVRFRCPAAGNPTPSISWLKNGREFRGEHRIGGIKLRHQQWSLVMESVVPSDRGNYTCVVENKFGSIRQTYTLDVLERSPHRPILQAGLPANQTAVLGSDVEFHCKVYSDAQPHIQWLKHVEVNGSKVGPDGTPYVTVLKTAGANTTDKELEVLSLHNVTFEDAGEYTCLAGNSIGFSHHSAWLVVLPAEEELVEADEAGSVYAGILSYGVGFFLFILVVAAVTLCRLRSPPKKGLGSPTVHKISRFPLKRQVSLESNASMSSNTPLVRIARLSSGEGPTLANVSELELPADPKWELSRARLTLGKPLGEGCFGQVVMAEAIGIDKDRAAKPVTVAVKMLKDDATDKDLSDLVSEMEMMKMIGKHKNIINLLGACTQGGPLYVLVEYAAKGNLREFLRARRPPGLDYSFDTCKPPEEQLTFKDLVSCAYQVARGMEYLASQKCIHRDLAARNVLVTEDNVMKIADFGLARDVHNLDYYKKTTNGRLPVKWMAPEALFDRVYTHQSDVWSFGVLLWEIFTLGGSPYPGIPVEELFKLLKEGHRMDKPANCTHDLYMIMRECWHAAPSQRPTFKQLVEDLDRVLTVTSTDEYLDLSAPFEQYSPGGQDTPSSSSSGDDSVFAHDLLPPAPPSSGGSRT

EphA1 = EphA1 (Homo sapiens (Human), UniProt P21709); assay type: biochemical; settings: read-out: % Inhibition @ 0.1 μM, EphA1
FGFR2 (N549H) = FGFR2 (N549H) (Homo sapiens (Human), UniProt P21802, N549H); assay type: biochemical; settings: read-out: % Inhibition @ 0.1 μM, FGFR2 (N549H)
TRKA = TRKA (Homo sapiens (Human), UniProt P04629); assay type: biochemical; settings: read-out: % Inhibition @ 0.1 μM, TrkA
IRAK1 = IRAK1 (Homo sapiens (Human), UniProt P51617); assay type: biochemical; settings: read-out: % Inhibition @ 0.1 μM, IRAK1
Abl (T315I) = Abl (T315I) (Homo sapiens (Human), UniProt P00519, T315I); assay type: biochemical; settings: read-out: % Inhibition @ 0.1 μM, Abl (T315I)
Tie2 (R849W) = Tie2 (R849W) (Homo sapiens (Human), UniProt Q02763, R849W); assay type: biochemical; settings: read-out: % Inhibition @ 0.1 μM, Tie2 (R849W)
FGFR1 = FGFR1 (Homo sapiens (Human), UniProt P11362); assay type: biochemical; settings: read-out: % Inhibition @ 0.1 μM, FGFR1
Abl = Abl (Homo sapiens (Human), UniProt P00519); assay type: biochemical; settings: read-out: % Inhibition @ 0.1 μM, Abl
FLT3 = FLT3 (Homo sapiens (Human), UniProt P36888); settings: read-out: % Inhibition @ 0.1 μM, Flt3
Aurora A = Aurora A (Homo sapiens (Human), UniProt O14965); assay type: biochemical; settings: read-out: % Inhibition @ 0.1 μM, Aurora-A
Abl (Y253F) = Abl (Y253F) (Homo sapiens (Human), UniProt P00519, Y253F); assay type: biochemical; settings: read-out: % Inhibition @ 0.1 μM, Abl (Y253F)
MuSK = MuSK (Homo sapiens (Human), UniProt O15146); assay type: biochemical; settings: read-out: % Inhibition @ 0.1 μM, MuSK
FGFR2 = FGFR2 (Homo sapiens (Human), UniProt P21802); assay type: biochemical; settings: read-out: % Inhibition @ 0.1 μM, FGFR2
Ros = Ros (Homo sapiens (Human), UniProt P08922); assay type: biochemical; settings: read-out: % Inhibition @ 0.1 μM, Ros
Sequence of Ros (P08922 28-2347): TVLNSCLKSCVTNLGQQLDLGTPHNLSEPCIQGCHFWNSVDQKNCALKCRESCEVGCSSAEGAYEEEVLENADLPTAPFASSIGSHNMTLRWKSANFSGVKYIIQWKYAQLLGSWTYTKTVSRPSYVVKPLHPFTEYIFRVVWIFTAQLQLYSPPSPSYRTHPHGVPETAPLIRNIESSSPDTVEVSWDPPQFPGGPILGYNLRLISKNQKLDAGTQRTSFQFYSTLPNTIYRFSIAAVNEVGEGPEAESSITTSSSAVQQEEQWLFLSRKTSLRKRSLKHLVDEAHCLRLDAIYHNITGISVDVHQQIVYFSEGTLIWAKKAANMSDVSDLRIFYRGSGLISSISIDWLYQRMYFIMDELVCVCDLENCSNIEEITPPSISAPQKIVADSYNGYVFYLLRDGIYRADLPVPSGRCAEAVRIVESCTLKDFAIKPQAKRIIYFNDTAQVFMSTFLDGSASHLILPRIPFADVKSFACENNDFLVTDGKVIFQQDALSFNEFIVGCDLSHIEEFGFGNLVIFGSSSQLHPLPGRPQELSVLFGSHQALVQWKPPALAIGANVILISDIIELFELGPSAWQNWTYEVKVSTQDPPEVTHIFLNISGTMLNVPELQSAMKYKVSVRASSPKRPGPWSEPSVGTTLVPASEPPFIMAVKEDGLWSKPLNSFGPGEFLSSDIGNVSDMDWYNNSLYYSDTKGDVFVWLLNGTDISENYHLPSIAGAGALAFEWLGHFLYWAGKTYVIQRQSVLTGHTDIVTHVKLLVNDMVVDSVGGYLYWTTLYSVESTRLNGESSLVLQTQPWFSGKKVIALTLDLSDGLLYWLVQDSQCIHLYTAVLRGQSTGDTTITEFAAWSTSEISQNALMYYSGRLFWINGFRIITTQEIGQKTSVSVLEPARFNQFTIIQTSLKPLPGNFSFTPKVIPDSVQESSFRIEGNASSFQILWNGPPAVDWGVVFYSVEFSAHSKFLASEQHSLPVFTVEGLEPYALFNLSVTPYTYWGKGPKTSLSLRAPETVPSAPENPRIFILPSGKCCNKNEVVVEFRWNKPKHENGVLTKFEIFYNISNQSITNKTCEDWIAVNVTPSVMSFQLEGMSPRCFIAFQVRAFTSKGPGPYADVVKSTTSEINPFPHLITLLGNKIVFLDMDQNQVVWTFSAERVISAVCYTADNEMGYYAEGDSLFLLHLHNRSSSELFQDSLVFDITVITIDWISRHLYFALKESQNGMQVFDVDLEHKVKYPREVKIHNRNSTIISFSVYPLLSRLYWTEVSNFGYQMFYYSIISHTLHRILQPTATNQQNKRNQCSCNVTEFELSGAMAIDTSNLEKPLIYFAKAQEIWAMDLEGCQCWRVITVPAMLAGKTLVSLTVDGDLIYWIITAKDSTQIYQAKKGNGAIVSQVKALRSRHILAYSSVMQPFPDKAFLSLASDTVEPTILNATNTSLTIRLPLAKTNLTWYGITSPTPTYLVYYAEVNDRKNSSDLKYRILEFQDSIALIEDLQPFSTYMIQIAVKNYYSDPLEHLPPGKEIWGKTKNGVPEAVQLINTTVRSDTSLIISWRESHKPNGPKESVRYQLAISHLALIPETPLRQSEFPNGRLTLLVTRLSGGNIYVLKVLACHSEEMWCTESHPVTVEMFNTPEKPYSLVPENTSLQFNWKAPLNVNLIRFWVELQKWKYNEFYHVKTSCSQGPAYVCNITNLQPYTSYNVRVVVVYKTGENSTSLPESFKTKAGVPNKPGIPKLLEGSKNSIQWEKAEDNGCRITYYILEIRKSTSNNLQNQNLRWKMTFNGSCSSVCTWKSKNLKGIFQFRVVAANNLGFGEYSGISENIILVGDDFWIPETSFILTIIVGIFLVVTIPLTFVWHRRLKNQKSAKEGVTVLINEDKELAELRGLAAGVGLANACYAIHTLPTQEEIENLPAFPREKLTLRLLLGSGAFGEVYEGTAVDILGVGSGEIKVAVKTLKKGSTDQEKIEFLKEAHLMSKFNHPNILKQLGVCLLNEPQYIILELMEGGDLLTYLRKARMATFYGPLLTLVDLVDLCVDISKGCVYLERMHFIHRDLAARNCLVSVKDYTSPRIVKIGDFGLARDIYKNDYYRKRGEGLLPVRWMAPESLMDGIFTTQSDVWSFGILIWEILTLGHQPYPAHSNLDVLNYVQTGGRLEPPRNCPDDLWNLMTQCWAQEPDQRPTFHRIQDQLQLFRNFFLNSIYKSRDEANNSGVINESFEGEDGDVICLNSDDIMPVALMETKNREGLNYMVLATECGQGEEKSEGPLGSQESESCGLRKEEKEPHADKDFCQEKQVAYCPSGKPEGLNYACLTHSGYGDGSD

GCK = GCK (Homo sapiens (Human), UniProt Q12851); assay type: biochemical; settings: read-out: % Inhibition @ 0.1 μM, GCK
Ret (V804L) = Ret (V804L) (Homo sapiens (Human), UniProt P07949, V804L); assay type: biochemical; settings: read-out: % Inhibition @ 0.1 μM, Ret (V804L)
Lck = Lck (Homo sapiens (Human), UniProt P06239); assay type: biochemical; settings: read-out: % Inhibition @ 0.1 μM, Lck
EphB1 = EphB1 (Homo sapiens (Human), UniProt P54762); assay type: biochemical; settings: read-out: % Inhibition @ 0.1 μM, EphB1
TrkB = TrkB (Homo sapiens (Human), UniProt Q16620); assay: biochemical; settings: read-out: % Inhibition @ 0.1 μM, TrkB
Abl (H396P) = Abl (H396P) (Homo sapiens (Human), UniProt P00519, H396P); assay type: biochemical; settings: read-out: % Inhibition @ 0.1 μM, Abl (H396P)
Arg = Arg (Homo sapiens (Human), UniProt P42684); assay type: biochemical; settings: read-out: % Inhibition @ 0.1 μM, Arg
Sequence of Arg (P42684 whole entry): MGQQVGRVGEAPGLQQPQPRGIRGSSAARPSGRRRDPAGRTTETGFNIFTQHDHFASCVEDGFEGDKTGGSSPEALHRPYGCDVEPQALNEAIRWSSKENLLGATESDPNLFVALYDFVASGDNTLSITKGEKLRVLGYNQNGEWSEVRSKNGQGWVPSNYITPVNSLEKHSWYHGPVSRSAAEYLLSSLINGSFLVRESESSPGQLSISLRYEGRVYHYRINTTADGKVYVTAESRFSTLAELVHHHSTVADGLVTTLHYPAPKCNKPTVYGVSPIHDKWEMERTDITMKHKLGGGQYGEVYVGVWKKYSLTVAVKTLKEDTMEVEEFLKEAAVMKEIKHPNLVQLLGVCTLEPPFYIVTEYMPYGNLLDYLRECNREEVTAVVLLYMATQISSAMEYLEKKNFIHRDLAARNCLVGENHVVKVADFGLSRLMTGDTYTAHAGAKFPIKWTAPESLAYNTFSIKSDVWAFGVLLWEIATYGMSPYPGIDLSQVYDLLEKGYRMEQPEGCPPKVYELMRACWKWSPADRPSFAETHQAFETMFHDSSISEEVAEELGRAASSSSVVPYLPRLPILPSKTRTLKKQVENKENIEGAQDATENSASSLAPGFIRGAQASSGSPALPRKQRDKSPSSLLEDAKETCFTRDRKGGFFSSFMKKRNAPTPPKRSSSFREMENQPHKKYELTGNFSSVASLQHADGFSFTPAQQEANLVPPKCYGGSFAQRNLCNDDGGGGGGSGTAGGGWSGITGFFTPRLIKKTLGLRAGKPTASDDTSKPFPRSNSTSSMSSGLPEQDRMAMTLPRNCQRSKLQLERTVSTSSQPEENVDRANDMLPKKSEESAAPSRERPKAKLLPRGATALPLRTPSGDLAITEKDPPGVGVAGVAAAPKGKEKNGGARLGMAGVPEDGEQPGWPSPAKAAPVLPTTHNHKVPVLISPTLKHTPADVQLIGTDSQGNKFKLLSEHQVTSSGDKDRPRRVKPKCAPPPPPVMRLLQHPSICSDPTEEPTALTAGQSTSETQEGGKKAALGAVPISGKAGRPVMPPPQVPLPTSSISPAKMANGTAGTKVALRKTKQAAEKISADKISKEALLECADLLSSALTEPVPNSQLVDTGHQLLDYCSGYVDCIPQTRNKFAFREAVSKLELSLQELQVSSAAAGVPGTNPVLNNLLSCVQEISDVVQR

Abl (M351T) = Abl (M351T) (Homo sapiens (Human), UniProt P00519, M351T); assay type: biochemical; settings: read-out: % Inhibition @ 0.1 μM, Abl (M351T)
FGFR1 (V561M) = FGFR1 (V561M) (Homo sapiens (Human), UniProt P11362, V561M); assay type: biochemical; settings: read-out: % Inhibition @ 0.1 μM, FGFR1 (V561M)
Abl (Q252H) = Abl (Q252H) (Homo sapiens (Human), UniProt P00519, Q252H); assay type: biochemical; settings: read-out: % Inhibition @ 0.1 μM, Abl (Q252H)
Itk = Itk (Homo sapiens (Human), UniProt Q08881); assay type: biochemical; settings: read-out: % Inhibition @ 0.1 μM, Itk
ARK5 = ARK5 (Homo sapiens (Human), UniProt O60285); assay type: biochemical; settings: read-out: % Inhibition @ 0.1 μM, ARK5
Sequence of ARK5 (O60285 whole entry): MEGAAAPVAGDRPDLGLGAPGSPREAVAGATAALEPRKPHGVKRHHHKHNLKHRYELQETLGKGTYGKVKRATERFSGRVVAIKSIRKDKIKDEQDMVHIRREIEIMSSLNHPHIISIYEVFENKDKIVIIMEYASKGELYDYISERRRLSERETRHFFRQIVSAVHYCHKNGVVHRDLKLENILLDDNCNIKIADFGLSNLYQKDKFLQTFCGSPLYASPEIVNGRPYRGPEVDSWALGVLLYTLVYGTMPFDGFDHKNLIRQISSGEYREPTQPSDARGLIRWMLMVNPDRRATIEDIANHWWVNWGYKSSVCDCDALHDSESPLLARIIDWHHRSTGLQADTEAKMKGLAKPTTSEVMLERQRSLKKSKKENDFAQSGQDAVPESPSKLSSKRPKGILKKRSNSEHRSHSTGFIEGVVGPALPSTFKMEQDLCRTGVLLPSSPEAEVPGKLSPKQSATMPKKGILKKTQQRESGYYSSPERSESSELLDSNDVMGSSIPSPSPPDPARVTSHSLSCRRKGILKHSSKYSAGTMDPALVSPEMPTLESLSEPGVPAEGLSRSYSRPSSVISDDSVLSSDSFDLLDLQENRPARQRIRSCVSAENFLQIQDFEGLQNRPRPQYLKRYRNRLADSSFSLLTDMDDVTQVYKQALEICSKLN

Tie2 (Y897S) = Tie2 (Y897S) (Homo sapiens (Human), UniProt Q02763, Y897S); assay type: biochemical; settings: read-out: % Inhibition @ 0.1 μM, Tie2 (Y897S)
Lck activated = Lck activated (Homo sapiens (Human), UniProt P06239); assay type: biochemical; settings: read-out: % Inhibition @ 0.1 μM, Lck activated
Aurora B = Aurora B (Homo sapiens (Human), UniProt Q96GD4); settings: read-out: % Inhibition @ 0.1 μM, Aurora-B
ALK = ALK (Homo sapiens (Human), UniProt Q9UM73); assay type: biochemical; settings: read-out: % Inhibition @ 0.1 μM, ALK

Q: How did the inhibition at 0.1 µM (Arg (m)) turn out when COc1ccc2c(c1)[C@]1(C[C@H]1c1ccc3c(/C=C/c4ccc(N5CCN(C)CC5)nc4)n[nH]c3c1)C(=O)N2 [Example A33, (1R,2S)-5′-methoxy-2-(3-((E)-2-(6-(4-methylpiperazin-1-yl)pyridin-3-yl)vinyl)-1H-indazol-6-yl)spiro[cyclopropane-1,3′-indolin]-2′-one 2,2,2-trifluoroacetate] was run?
A: 96%

Q: And the inhibition at 0.1 µM (Ron)?
A: 42%

Q: And the inhibition at 0.1 µM (Abl (m))?
A: 96%

Q: What about the inhibition at 0.1 µM (Bmx) of the same molecule?
A: 68%

Q: And the inhibition at 0.1 µM (Tie2)?
A: 83%

Q: What about the inhibition at 0.1 µM (FGFR3) of the same molecule?
A: 91%

Q: What about the inhibition at 0.1 µM (EphA1) of the same molecule?
A: 22%

Q: And the inhibition at 0.1 µM (FGFR2 (N549H))?
A: 75%

Q: What about the inhibition at 0.1 µM (TRKA) of the same molecule?
A: 97%

Q: What about the inhibition at 0.1 µM (IRAK1) of the same molecule?
A: 24%

Q: What about the inhibition at 0.1 µM (Abl (T315I)) of the same molecule?
A: 94%

Q: What about the inhibition at 0.1 µM (Tie2 (R849W)) of the same molecule?
A: 40%

Q: And the inhibition at 0.1 µM (FGFR1)?
A: 87%

Q: And the inhibition at 0.1 µM (Abl)?
A: 72%

Q: And the inhibition at 0.1 µM (FLT3)?
A: 28%

Q: What about the inhibition at 0.1 µM (Aurora A) of the same molecule?
A: 96%

Q: What about the inhibition at 0.1 µM (Abl (Y253F)) of the same molecule?
A: 78%

Q: And the inhibition at 0.1 µM (MuSK)?
A: 18%

Q: What about the inhibition at 0.1 µM (FGFR2) of the same molecule?
A: 82%

Q: And the inhibition at 0.1 µM (Ros)?
A: 23%

Q: And the inhibition at 0.1 µM (GCK)?
A: 51%

Q: What about the inhibition at 0.1 µM (Ret (V804L)) of the same molecule?
A: 43%

Q: And the inhibition at 0.1 µM (Lck)?
A: 48%

Q: And the inhibition at 0.1 µM (EphB1)?
A: 34%

Q: What about the inhibition at 0.1 µM (TrkB) of the same molecule?
A: 98%

Q: And the inhibition at 0.1 µM (Abl (H396P))?
A: 93%

Q: What about the inhibition at 0.1 µM (Arg) of the same molecule?
A: 94%

Q: What about the inhibition at 0.1 µM (Abl (M351T)) of the same molecule?
A: 95%

Q: And the inhibition at 0.1 µM (FGFR1 (V561M))?
A: 91%

Q: And the inhibition at 0.1 µM (Abl (Q252H))?
A: 83%

Q: And the inhibition at 0.1 µM (Itk)?
A: 34%

Q: And the inhibition at 0.1 µM (ARK5)?
A: 67%

Q: What about the inhibition at 0.1 µM (Tie2 (Y897S)) of the same molecule?
A: 49%

Q: And the inhibition at 0.1 µM (Lck activated)?
A: 41%

Q: And the inhibition at 0.1 µM (Aurora B)?
A: 100%

Q: And the inhibition at 0.1 µM (ALK)?
A: 32%
